# Data as given in the supplement of paper PMC10733146.
# Tests used:
# Assay in all cases: viability relative to DMSO control (fraction); higher = less drug effect (more viable cells)
# Settings in all cases: 48 h
# [1] = system: primary CLL patient cells (S043)
# Summary of the method: (§1)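 The cells were primary mononuclear tumour cells, either fresh or cryopreserved, isolated by Ficoll from blood or bone marrow or derived from processed lymph node. Each well of a 384-well plate received 4 × 10^4 cells onto compounds pre-plated at five concentrations, with one well per concentration. The medium was RPMI-1640 with penicillin/streptomycin, L-glutamine and human serum, and plates stood at 37 °C and 5% CO2 for 48 h. Viability is reported as CellTiter-Glo luminescence relative to the median of 16 inner DMSO wells.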
# [2] = system: primary AML patient cells (S081)
# Summary of the method: as §1
# [3] = system: primary AML patient cells (S002)
# Summary of the method: as §1
# [4] = system: primary MCL patient cells (S063)
# Summary of the method: as §1
# [5] = system: primary AML patient cells (S025)
# Summary of the method: as §1
# [6] = system: primary AML patient cells (S012)
# Summary of the method: as §1
# [7] = system: primary MCL patient cells (S068)
# Summary of the method: as §1
# [8] = system: primary AML patient cells (S056)
# Summary of the method: as §1
# [9] = system: primary AML patient cells (S009)
# Summary of the method: as §1
# [10] = system: primary AML patient cells (S079)
# Summary of the method: as §1
# [11] = system: primary AML patient cells (S017)
# Summary of the method: as §1
# [12] = system: primary AML patient cells (S055)
# Summary of the method: as §1
# [13] = system: primary ALL patient cells (S048)
# Summary of the method: as §1
# [14] = system: primary AML patient cells (S021)
# Summary of the method: as §1
# [15] = system: primary T-PLL patient cells (S008)
# Summary of the method: as §1
# [16] = system: primary AML patient cells (S006)
# Summary of the method: as §1
# [17] = system: primary MCL patient cells (S053)
# Summary of the method: as §1
# [18] = system: primary BL patient cells (S005)
# Summary of the method: as §1
# [19] = system: primary AML patient cells (S072)
# Summary of the method: as §1
# [20] = system: primary FL patient cells (S022)
# Summary of the method: as §1
smiles,measurement,setting,value
CC(C)C[C@H](NC(=O)CNC(=O)c1cc(Cl)ccc1Cl)B(O)O [Ixazomib],viability,[1]; 0.008 µM,0.915
same,viability,[1]; 0.04 µM,0.73
same,viability,[1]; 0.2 µM,0.987
same,viability,[1]; 1 µM,0.74
same,viability,[1]; 5 µM,0.781
same,viability,[2]; 0.008 µM,0.987
same,viability,[2]; 0.04 µM,0.96
same,viability,[2]; 0.2 µM,0.901
same,viability,[2]; 1 µM,0.95
same,viability,[2]; 5 µM,0.981
same,viability,[3]; 0.008 µM,0.843
same,viability,[3]; 0.04 µM,0.979
same,viability,[3]; 0.2 µM,0.932
same,viability,[3]; 1 µM,0.972
same,viability,[3]; 5 µM,0.933
same,viability,[4]; 0.008 µM,0.919
same,viability,[4]; 0.04 µM,1.02
same,viability,[4]; 0.2 µM,0.921
same,viability,[4]; 1 µM,0.993
same,viability,[4]; 5 µM,0.953
same,viability,[5]; 0.008 µM,0.932
same,viability,[5]; 0.04 µM,0.95
same,viability,[5]; 0.2 µM,0.952
same,viability,[5]; 1 µM,1.02
same,viability,[5]; 5 µM,1.08
same,viability,[6]; 0.008 µM,0.975
same,viability,[6]; 0.04 µM,0.971
same,viability,[6]; 0.2 µM,1.1
same,viability,[6]; 1 µM,1.01
same,viability,[6]; 5 µM,0.978
same,viability,[7]; 0.008 µM,0.998
same,viability,[7]; 0.04 µM,0.9
same,viability,[7]; 0.2 µM,1.04
same,viability,[7]; 1 µM,1.04
same,viability,[7]; 5 µM,1.05
same,viability,[8]; 0.008 µM,0.755
same,viability,[8]; 0.04 µM,0.894
same,viability,[8]; 0.2 µM,1.11
same,viability,[8]; 1 µM,0.9
same,viability,[8]; 5 µM,0.893
same,viability,[9]; 0.008 µM,1.09
same,viability,[9]; 0.04 µM,0.981
same,viability,[9]; 0.2 µM,1.08
same,viability,[9]; 1 µM,1.03
same,viability,[9]; 5 µM,1.09
same,viability,[10]; 0.008 µM,0.988
same,viability,[10]; 0.04 µM,0.914
same,viability,[10]; 0.2 µM,0.888
same,viability,[10]; 1 µM,1
same,viability,[10]; 5 µM,1.02
same,viability,[11]; 0.008 µM,0.923
same,viability,[11]; 0.04 µM,0.963
same,viability,[11]; 0.2 µM,0.834
same,viability,[11]; 1 µM,0.942
same,viability,[11]; 5 µM,0.979
same,viability,[12]; 0.008 µM,0.936
same,viability,[12]; 0.04 µM,0.984
same,viability,[12]; 0.2 µM,0.953
same,viability,[12]; 1 µM,0.992
same,viability,[12]; 5 µM,0.941
same,viability,[13]; 0.008 µM,1.04
same,viability,[13]; 0.04 µM,0.94
same,viability,[13]; 0.2 µM,0.961
same,viability,[13]; 1 µM,0.994
same,viability,[13]; 5 µM,1.05
same,viability,[14]; 0.008 µM,0.927
same,viability,[14]; 0.04 µM,1
same,viability,[14]; 0.2 µM,0.983
same,viability,[14]; 1 µM,1.14
same,viability,[14]; 5 µM,1.09
same,viability,[15]; 0.008 µM,0.924
same,viability,[15]; 0.04 µM,1.01
same,viability,[15]; 0.2 µM,1.09
same,viability,[15]; 1 µM,1.01
same,viability,[15]; 5 µM,0.961
same,viability,[16]; 0.008 µM,0.929
same,viability,[16]; 0.04 µM,1
same,viability,[16]; 0.2 µM,0.924
same,viability,[16]; 1 µM,1.04
same,viability,[16]; 5 µM,1.01
same,viability,[17]; 0.008 µM,0.872
same,viability,[17]; 0.04 µM,0.954
same,viability,[17]; 0.2 µM,0.945
same,viability,[17]; 1 µM,0.972
same,viability,[17]; 5 µM,0.883
same,viability,[18]; 0.008 µM,1.61
same,viability,[18]; 0.04 µM,0.944
same,viability,[18]; 0.2 µM,1.56
same,viability,[18]; 1 µM,0.939
same,viability,[18]; 5 µM,0.945
same,viability,[19]; 0.008 µM,1.09
same,viability,[19]; 0.04 µM,0.984
same,viability,[19]; 0.2 µM,0.838
same,viability,[19]; 1 µM,0.922
same,viability,[19]; 5 µM,0.934
same,viability,[20]; 0.008 µM,0.894
same,viability,[20]; 0.04 µM,1
same,viability,[20]; 0.2 µM,0.954
same,viability,[20]; 1 µM,0.999
same,viability,[20]; 5 µM,0.979
